The subject of assay [1] is FGFR1, FGFR2, FGFR3, FGFR4 and FGF2 in adult human dermal fibroblasts. As to the kind of experiment: Expression and localization of FGF2 and FGF receptors (RT-PCR, immunocytochemistry). The assay is classed as cell-based. The procedure: Adult human fibroblasts (CRL-2352, ATCC) were cultured in conditions of 37° C., 5% CO2, 5% O2 90% N2 were seeded into 24 well plates (BD Falcon) either without substrate or with 15 mm Thermanox® coverslips (Nalge Nunc) at 5,000 cells per well in medium consisting of DMEM with 4 mM fresh L-glutamine: Ham's F12 medium (50:50) supplemented with 1×TCH serum replacement (Protide Pharmaceuticals), 1×ITS-X (Invritrogen), 2% FetalClone III (Hyclone), and 4 ng/ml FGF2 (Chemicon). After 5 days, the cells were washed with DPBS w/o Ca/Mg (Mediatech) and fixed in methanol (−20° C.) for 10 min, washed with DPBS and stored in DPBS at 4° C. until use. For detection of nuclear antigens (Msx-1, Msx-2, Sox-2, Oct-4 and Nanog), enhanced nuclear membrane permeabilization was performed by incubation with 1.5 N HCl for 20 min, followed by 3 washes (5 min) in PBS. For immuno-cytochemistry, cells were washed with PBS/Tween (PBS, MediaTech with 0.05% Tween-20, Biorad) and blocked for 30 min at RT with PBS containing 0.05% Tween, 5% FBS, and 1% BSA). Primary antibodies (1:200 dilution) were added in blocking solution for 30 min at RT. Cells were washed 4× in PBS/Tween and Alexafluor-568 labeled appropriate secondary antibody diluted 1:1000 in blocking solution added for 30 min. Cells were washed 4× in PBS/Tween and stored in PBS at 4 C until image analysis. Antibodies used were: Msx-1 (SantaCruz, sc-17726), Msx-2 (Santa Cruz, sc-17729), Sox-2 (Abeam, ab15830), Oct4 (Santa Cruz, sc-8630), Nanog (abeam ab21624) FGF receptor-1 (Abgent, AP7636a), FGF Receptor-2 (Abgent, AP7636a), FGF2 (N-terminus, Santa Cruz sc-1390), FGF2 (internal, Santa Cruz sc-79), fibroblast specific protein (FSP, Sigma). Coverslips were removed and mounted onto glass slides in 80% glycerol in PBS containing 0.1% Na-Azide and sealed with nail polish. Cells were visualized using at Olympus IX81 inverted microscope with epi-fluorescence using appropriate filters (Semrock, Inc.) and phase contrast. Images were collected using a 12 bit Hamamatzu CCD camera (Model C4742-80-12AG) and images processes using Slidebook®. […]

Assay [2] deals with Msx-1, Msx-2, Sox-2, Oct-4 and Nanog in adult human fibroblasts (CRL-2352). The assay can be described thus: Immunocytochemistry / western blot for stem cell transcription factors in FGF2-cultured fibroblasts. It counts as cell-based. As for the experimental part:
Adult human fibroblasts (CRL-2352, ATCC) were cultured in conditions of 37° C., 5% CO2, 5% O2 90% N2 were seeded into 24 well plates (BD Falcon) either without substrate or with 15 mm Thermanox® coverslips (Nalge Nunc) at 5,000 cells per well in medium consisting of DMEM with 4 mM fresh L-glutamine: Ham's F12 medium (50:50) supplemented with 1×TCH serum replacement (Protide Pharmaceuticals), 1×ITS-X (Invritrogen), 2% FetalClone III (Hyclone), and 4 ng/ml FGF2 (Chemicon). After 5 days, the cells were washed with DPBS w/o Ca/Mg (Mediatech) and fixed in methanol (−20° C.) for 10 min, washed with DPBS and stored in DPBS at 4° C. until use. For detection of nuclear antigens (Msx-1, Msx-2, Sox-2, Oct-4 and Nanog), enhanced nuclear membrane permeabilization was performed by incubation with 1.5 N HCl for 20 min, followed by 3 washes (5 min) in PBS. For immuno-cytochemistry, cells were washed with PBS/Tween (PBS, MediaTech with 0.05% Tween-20, Biorad) and blocked for 30 min at RT with PBS containing 0.05% Tween, 5% FBS, and 1% BSA). Primary antibodies (1:200 dilution) were added in blocking solution for 30 min at RT. Cells were washed 4× in PBS/Tween and Alexafluor-568 labeled appropriate secondary antibody diluted 1:1000 in blocking solution added for 30 min. Cells were washed 4× in PBS/Tween and stored in PBS at 4 C until image analysis. Antibodies used were: Msx-1 (SantaCruz, sc-17726), Msx-2 (Santa Cruz, sc-17729), Sox-2 (Abeam, ab15830), Oct4 (Santa Cruz, sc-8630), Nanog (abeam ab21624) FGF receptor-1 (Abgent, AP7636a), FGF Receptor-2 (Abgent, AP7636a), FGF2 (N-terminus, Santa Cruz sc-1390), FGF2 (internal, Santa Cruz sc-79), fibroblast specific protein (FSP, Sigma). Coverslips were removed and mounted onto glass slides in 80% glycerol in PBS containing 0.1% Na-Azide and sealed with nail polish. Cells were visualized using at Olympus IX81 inverted microscope with epi-fluorescence using appropriate filters (Semrock, Inc.) and phase contrast. Images were collected using a 12 bit Hamamatzu CCD camera (Model C4742-80-12AG) and images processes using Slidebook®.
Fibroblasts were seeded into 24 well plates (BD Falcon) with 15 mm Thermanox® coverslips (Nunc) or #2 12 mm round glass coverslips (VWR) at 5,000 cells per well in medium consisting of DMEM with 4 mM fresh L-glutamine: Ham's F12 medium (60:40) supplemented with 1×TCH serum replacement (Protide Pharmaceuticals), 1×ITS-X (Invitrogen), 2% FetalClone III (Hyclone) and cultured at 37° C., 5% CO2, 5% O2 and 90% N2. For FGF2 treatments, FGF2 (4 ng/ml) was added to the medium at the time of seeding. After 7 days, the cells were washed with DPBS w/o Ca/Mg (Mediatech) and fixed in methanol (−20° C.) for 10 min, washed with DPBS and stored in DPBS at 4 C until use. Cells were washed with PBS/Tween (PBS, MediaTech with 0.05% Tween-20, Biorad) and blocked for 30 min at RT with PBS containing 0.05% Tween, 5% FBS, and 1% BSA). Primary antibodies (2.5 μg/ml) were added in blocking solution for 30 min at RT. Cells were washed 4× in PBS/Tween and Alexafluor-568 labeled appropriate secondary antibody (4 μg/ml) in blocking solution added for 30 min. Cells were washed 4× in PBS/Tween and stored in PBS at 4° C. until image analysis. Antibodies used were: Oct4 (Abcam ab19857), Sox2 (Abcam, ab15830), Nanog (Abcam, ab21624, FGFR-1 (Abgent, AP7636a), FGFR-2 (Abgent, AP7636a), FGFR3 (Abcam ab10651), FGFR4 (Abcam ab41948), FGF2 (Santa Cruz, sc-1390 and sc-79). Coverslips were removed and mounted onto glass slides in 80% glycerol in PBS containing 0.1% Na-Azide and sealed with nail polish. Cells were visualized using an Olympus IX81 inverted microscope with epi-fluorescence using appropriate filters (Semrock, Inc.) and phase contrast. Images were collected using a 12 bit Hamamatzu CCD camera and processed using Slidebook®. […]
A general note: In western blotting, separated proteins are transferred to a membrane and probed.

Entries after “also recorded” stand apart in the source; their conditions may differ.

In the case of “FGF2: human recombinant FGF2 (Invitrogen, Chemicon or Protide), basic fibroblast growth factor”, the FGFR4 localization result in assay [1] (FGF2 addition) is “no effect”. The “localization of FGF2, FGFR1 and FGFR2 (immunocytochemistry)” value in assay [1] (cells supplemented with FGF2) was “in the nucleus as well as on the cell surface; also recorded: translocated to the nucleus”. In addition, in assay [1] (regardless of the culture conditions), the “transcription of FGF receptors or FGF2 itself” value was “no significant effect”. Besides, in assay [2] (FGF2 4 ng/ml, 5% O2, 7 days), the “effect on Oct4, Sox2 and Nanog protein” value is “translation and nuclear translocation”. Further, in assay [2] (FGF2, lowered oxygen, 7 days of culture), the “cells with stem-like nuclear localization of the transcription factors” value is given as “up to 30%”. The “localization of Msx2, Sox2 and Oct4, Thermanox coverslips” value in assay [2] (Thermanox coverslips, 2% serum, low O2, FGF2) was “detected in the nucleus; also recorded: nuclear localization of all three transcription factors”. Further, the “FGF2 concentration at which Sox-2 is induced” value in assay [2] (culture for 2 days, preliminary dose response) came to 0.5 ng/mL. Besides, in assay [2] (early transition of cultures grown in the presence of FGF2), the “ICC for transcription factors Oct4, Sox2 and Msx1” value is listed as “positive”. The “localization of induced Sox2 expression” value in assay [2] (preliminary dose response, before change to Thermanox coverslips) is “restricted to the cytoplasm”. Also, in assay [2] (tissue culture plastic, low O2, low serum, FGF2 4 ng/ml, 5 days), the “expression of Msx-2, Sox-2 and Oct-4, tissue culture plastic” value is reported as “some cytoplasmic expression”.

These data come from patent US9290740B2, “Use of basic fibroblast growth factor in the de-differentiation of animal connective tissue cells” (Worcester Polytechnic Institute, priority 2008, dated 2016).
